Experiment [1] relates to PINP. The experiment in a line: Serum PINP ELISA. The class given is in vivo, mouse. The note with it: d17. As to the method: (§1) ELISA. Mouse high-sensitivity IFN-α ELISA kit (42115-1) and IFN-β ELISA kit (42410-1) were purchased from PBL Assay Science. Mouse CTX-I ELISA kit (AC-06F1) and mouse PINP ELISA kit (AC-33F1) were purchased from Immunodiagnostic Systems. ELISA was performed using culture medium, serum, and bone marrow lysates. Serum was obtained from whole blood that was collected from a submandibular vein via facial vein puncture, coagulated for 30 minutes at room temperature, followed by centrifugation (2,000 ×g for 10 min, 4° C.) and collection of the supernatant (serum). Bone marrow was homogenized in a lysis buffer containing protease inhibitors at 4° C. for 30 minutes. ELISA was conducted in accordance with the manufacturer's instructions. A standard curve was performed for each experiment.
A general note: An ELISA detects its analyte on a solid surface through an enzyme-linked reagent.

Experiment [2] has as its system CTX-I. As to the kind of experiment: Serum CTX-I ELISA. The class given is in vivo, mouse. The note with it: d17. As to the method: as §1
Experiment [3] relates to IFN-α. As to the kind of experiment: IFN-α ELISA on DRGs incubated ex vivo or cultured with ADU-S100. The format is cell-based, mouse. The protocol:
(§2) ELISA: Mouse high-sensitivity IFN-α ELISA kit (42115-1) and IFN-β ELISA kit (42410-1) were purchased from PBL Assay Science and performed on serum, DRG lysate, or cell culture medium according to the manufacturer's instructions. Serum was obtained from whole blood through cardiac puncture at the time of euthanasia, followed by incubation for 30 minutes at 35° C. to promote clotting. Subsequently, samples were centrifuged at 4° C. at 2,500 xg for 15 minutes, followed by careful isolation of serum (supernatant). For ELISA on cell culture medium, samples were first concentrated approximately 10-fold using Amicon centrifugal filters (Millipore Sigma, UFC8030). DRGs were lysed by mechanical homogenization in a pH 7.4 CHAPS lysis buffer (FivePhoton Biochemicals, CIB-1-7.4-60) supplemented with a protease inhibitor cocktail (Millipore Sigma, 11697498001) and phosphatase inhibitor cocktail (FivePhoton Biochemicals, PIC1). For DRG lysate, Pierce BCA (ThermoFisher, 23225) assays were performed according to the manufacturer's instructions to quantify protein concentration, and ELISA results are reported normalized to protein concentration (pg/mg DRG tissue). To measure IFN-β levels in cerebrospinal fluid (CSF) isolated by spinal catheter from NHPs, we utilized a cynomolgus IFN-β ELISA kit (PBL Assay Science, 46415-1), which was performed using 50 μl CSF according to the manufacturer's instructions. Standard curves were performed in all experiments and values interpolated using GraphPad Prism version.

Experiment [4] deals with IFN-β. As to the kind of experiment: YFP (IFN-β) expression in DRG neurons of Ifnb1YFP/YFP reporter mice. The format is in vivo, mouse. The protocol:
Genetic mouse models: All mouse procedures were approved by the Duke University Institutional Animal Care and Use Committee (IACUC) and complied with relevant ethical guidelines. Mice were housed in an animal facility approved by the Association for Assessment and Accreditation of Laboratory Animal Care (AAALAC) under a 12 h light/dark cycle with food and water available ad libitum. All commercially-available genetic mouse models were obtained from Jackson Labs and maintained on a C57BL/6J background, including: Ifnb1YFP reporter mice (strain #010818) 1, STING “goldenticket” knockout mice 2 (STINGgt/gt; strain #017537), STING floxed/conditional knockout mice 3 (STINGfx/fx; strain #031670), Ifnar1 global knockout mice (Ifnar1−/−; strain #028288), Ifnar1 floxed/conditional knockout mice 4 (Ifnar1fx/fx; strain #028256), cGAS knockout mice 5 (cGAS−/−; strain #026554), and RIG-I knockout mice (RIG-I−/−; strain #46070-JAX). Nav1.8-Cre mice 6, also maintained on a C57BL/6J background, were a gift from Rohini Kuner (University of Heidelberg). NOD.CB17-Prkdcscid mice were also obtained from Jackson Labs (strain #001303) and maintained in a NOD/ShiLtSz genetic background. Unless otherwise noted, all experiments were conducted in adult (8-12-week-old) mice. Animals were randomly assigned to each experimental group. Both males and females were included in each group in a sex-matched manner. […]

The test system of experiment [5] is IFN-β. The experiment in a line: IFN-β ELISA on DRGs incubated ex vivo or cultured with ADU-S100. The format is cell-based, mouse. To be noted: for IFN-β levels in DRG lysate: ex vivo incubation 30 μM, 2 h. As to the method:
as §2

[6] abbreviates: cultured DRGs from STING-WT mice.

As to `Cc1ccc2c(=O)c3cccc(CC(=O)O)c3oc2c1C` [DMXAA, 2-(5,6-dimethyl-9-oxo-9H-xanthen-4-yl)acetic acid], the “serum PINP levels” value in experiment [1] was “had no effect on serum PINP levels”. Moreover, the “serum CTX-I levels” value in experiment [2] was “could effectively reduce CTX-I levels on d17”.
In the case of `Nc1ncnc2c1ncn2[C@@H]1O[C@@H]2COP(=O)([S-])O[C@@H]3[C@H](O)[C@@H](COP([O-])(=S)O[C@H]2[C@H]1O)O[C@H]3n1cnc2c(N)ncnc21.[Na+].[Na+]` (stereo partly drawn) [ADU-S100, (2′-5′)-[P(R)]-5′-O-[(R)-hydroxymercaptophosphinyl]-P-thioadenylyl-adenosine cyclic dinucleotide], the “IFN-α in culture medium” value in experiment [3] (setting [6]) was “increased IFN-α and IFN-β in the culture medium”. Besides, the “increase in IFN-α in STING-KO and STING-cKO DRGs” value in experiment [3] (ex vivo incubation) was “abolished in STING-KO mice and largely abolished in STING-cKO mice”. Besides, in experiment [3] (ex vivo incubation 30 μM, 2 h, WT mice), the “IFN-α levels in DRG lysate” value was “IFN-α levels in DRG lysate were increased”. For the same compound, the “YFP (IFN-β) expression in DRG neurons” value in experiment [4] is “increased after ADU-S100 treatment”. The “IFN-β in culture medium” value in experiment [5] (setting [6]) is “increased IFN-α and IFN-β in the culture medium”. The “increase in IFN-β in STING-KO and STING-cKO DRGs” value in experiment [5] (ex vivo incubation) is “abolished in STING-KO mice and largely abolished in STING-cKO mice”. The “IFN-β levels in DRG lysate” value in experiment [5] (STINGfx/fx, Nav1.8-Cre mice) is “significant elevation of IFN-β in STINGfx/fx; Nav1.8-Cre DRG lysate, but this increase was significantly lower than that seen in WT mice”; in experiment [5] (WT mice) it was “IFN-β levels in DRG lysate were increased”.

The values are drawn from US20230158057A1, “COMPOSITIONS AND METHODS FOR THE TREATMENT OF PAIN” (Duke University, priority 2020, published 2023).
